Here are results for one compound from ChEMBL document CHEMBL5550140, “Emerging ferroptosis inhibitors as a novel therapeutic strategy for the treatment of neonatal hypoxic-ischemic encephalopathy” (2024).

The subject of this assay is Mus musculus. As to the kind of experiment: Neuroprotective activity against hypoxia-ischemia brain injured mouse model assessed as reduction in infarct volume at 20 mg/kg, ip measured after 72 hrs by immuno-histochemistry based staining analysis relative to control. Type of assay: functional. Further details: scale not given: the % may be the effect or the level left.

On to `Oc1cccnc1NC(c1ccc(Cl)cc1)c1ccc2cccnc2c1O` (stereo unspecified), for which the Activity is 26.3%.
